Measurements reported in paper PMC10813692 (2024).
One block for each compound: values may come before it.

How the values were obtained:
[1] = tested on: M1 (RNA, aptamer) GGGUAUGGGUAGUGCGAUUCGCACUGAAUGCCGCGUAGGCUUCGCUACUGGCUUCUACUACGUACCCAUACCC; experiment: ITC; details: 0.25 mM K+, 20 mM Na+, 5 mM Mg2+; 1x CSB (40 mM HEPES pH 7.4), 25 °C; 30 µM RNA, 500 µM LFX; one-site model
[2] = tested on: LxCsh (RNA, aptamer) GGGUUUGGGUAGUGCGAUUCGCACUGAAUGCCGCGUAGGCUUCGCUACUGGCUUCUACUACGUACCCAAACCC; experiment: ITC; details: 0.25 mM K+, 20 mM Na+, 5 mM Mg2+; 1x CSB (40 mM HEPES pH 7.4), 25 °C; 30 µM RNA, 500 µM LFX; one-site model
[3] = tested on: LxC (RNA, aptamer) GGGCAACUCCAAGCUAGAUCUACCGGUUUGGGUAGUGCGAUUCGCACUGAAUGCCGCGUAGGCUUCGCUACUGGCUUCUACUACGUACCCAAAAUGGCUAGCAAAGGAGAAGAACUUUUCACU; experiment: elution from immobilised Capture-ON; details: 0.25 mM K+, 20 mM Na+, 5 mM Mg2+, 1x CSB (40 mM HEPES pH 7.4), DNA Capture-ON displaced
[4] = tested on: M4 (RNA, aptamer) GGGUUUGGGUAGUGCGAUUCGCACUGAAUGCCGGUAGGCUUCGCUACUGGCUUCUACUACGUACCCAAACCC; experiment: ITC; details: 0.25 mM K+, 20 mM Na+, 5 mM Mg2+; 1x CSB (40 mM HEPES pH 7.4), 25 °C; 30 µM RNA, 500 µM LFX in syringe
[5] = tested on: M12 (RNA, aptamer) GGGUUUGGGUGAAUGCCGCGUAGGCUUCGCUACUGGCUUCUACUACGUACCCAAACCC; experiment: ITC; details: 0.25 mM K+, 20 mM Na+, 5 mM Mg2+; 1x CSB (40 mM HEPES pH 7.4), 25 °C; 30 µM RNA, 500 µM LFX in syringe
[6] = tested on: M5 (RNA, aptamer) GGGUUUGGGUAGUUUCGACUGAAUGCCGCGUAGGCUUCGCUACUGGCUUCUACUACGUACCCAAACCC; experiment: ITC; details: 0.25 mM K+, 20 mM Na+, 5 mM Mg2+; 1x CSB (40 mM HEPES pH 7.4), 25 °C; 30 µM RNA, 500 µM LFX in syringe
[7] = tested on: LxF (RNA, aptamer) GGGCAACUCCAAGCUAGAUCUACCGGUGCAGGUCUGGGAACUCGUUCCCGGCUCCAGCUGGAUUCUUCUACUGGCUUCUAGCCCGACCGGAAAAUGGCUAGCAAAGGAGAAGAACUUUUCACU; experiment: elution from immobilised Capture-ON; details: 0.25 mM K+, 20 mM Na+, 5 mM Mg2+; 1x CSB (40 mM HEPES pH 7.4); 1 mM LFX; DNA Capture-ON displaced
[8] = tested on: LxA1 (RNA, aptamer) GGGCAACUCCAAGCUAGAUCUACCGGUUUUUUCAGGCGGCUUAAAAACCAGGAAAGGUGGAGACUUCUACUGGCUUCUAUCCAGCCGGUAAAAUGGCUAGCAAAGGAGAAGAACUUUUCACU; experiment: elution from immobilised Capture-ON; details: 0.25 mM K+, 20 mM Na+, 5 mM Mg2+; 1x CSB (40 mM HEPES pH 7.4); 1 mM LFX; DNA Capture-ON displaced
[9] = tested on: LxD (RNA, aptamer) GGGCAACUCCAAGCUAGAUCUACCGGUCUAGUGCCUCAACUAGCCGAACCGUGGUCGUCUUCAUGCCUACUGGCUUCUACGAGAUAAAUAAAAUGGCUAGCAAAGGAGAAGAACUUUUCACU; experiment: elution from immobilised Capture-ON; details: 0.25 mM K+, 20 mM Na+, 5 mM Mg2+, 1x CSB (40 mM HEPES pH 7.4), DNA Capture-ON displaced
[10] = tested on: M6 (RNA, aptamer) GGGUUUGGGUAGCGAUUCGCUGAAUGCCGCGUAGGCUUCGCUACUGGCUUCUACUACGUACCCAAACCC; experiment: ITC; details: 0.25 mM K+, 20 mM Na+, 5 mM Mg2+; 1x CSB (40 mM HEPES pH 7.4), 25 °C; 30 µM RNA, 500 µM LFX in syringe
[11] = tested on: LxC (RNA, aptamer) GGGCAACUCCAAGCUAGAUCUACCGGUUUGGGUAGUGCGAUUCGCACUGAAUGCCGCGUAGGCUUCGCUACUGGCUUCUACUACGUACCCAAAAUGGCUAGCAAAGGAGAAGAACUUUUCACU; experiment: ITC; details: 0.25 mM K+, 20 mM Na+, 5 mM Mg2+; 1x CSB (40 mM HEPES pH 7.4), 25 °C; 30 µM RNA, 500 µM LFX; one-site model
[12] = tested on: LxCsh (RNA, aptamer) GGGUUUGGGUAGUGCGAUUCGCACUGAAUGCCGCGUAGGCUUCGCUACUGGCUUCUACUACGUACCCAAACCC; experiment: lateral flow assay, Capture-ON displacement; details: 0.25 mM K+, 20 mM Na+, 5 mM Mg2+, 1x CSB (40 mM HEPES pH 7.4), room temperature, 6FAM Capture-ON displaced
[13] = tested on: M3 (RNA, aptamer) GGGUUUGGGUAGUGCGAUUCGCACUGAAGCCGCGUAGGCUUCGCUACUGGCUUCUACUACGUACCCAAACCC; experiment: ITC; details: 0.25 mM K+, 20 mM Na+, 5 mM Mg2+; 1x CSB (40 mM HEPES pH 7.4), 25 °C; 30 µM RNA, 500 µM LFX in syringe
[14] = tested on: M14 (RNA, aptamer) GGGCGCACUGAAUGCCGCGUAGGCUUCGCUACUGGCUUCUACUACGUAUAGUGCGCCC; experiment: ITC; details: 0.25 mM K+, 20 mM Na+, 5 mM Mg2+; 1x CSB (40 mM HEPES pH 7.4), 25 °C; 30 µM RNA, 500 µM LFX in syringe
[15] = tested on: M13 (RNA, aptamer) GGGUUUGGGUAGAAUGCCGCGUAGGCUUCGCUACUGGCUUCUACUACGUACCCAAACCC; experiment: ITC; details: 0.25 mM K+, 20 mM Na+, 5 mM Mg2+; 1x CSB (40 mM HEPES pH 7.4), 25 °C; 30 µM RNA, 500 µM LFX in syringe
[16] = tested on: LxB1 (RNA, aptamer) GGGCAACUCCAAGCUAGAUCUACCGGUGUGUAACGGAAGCACAAAGGUGCCUCCUACAGCAGGUCUUCUACUGGCUUCUACUGAUACACUAAAAUGGCUAGCAAAGGAGAAGAACUUUUCACU; experiment: elution from immobilised Capture-ON; details: 0.25 mM K+, 20 mM Na+, 5 mM Mg2+, 1x CSB (40 mM HEPES pH 7.4), DNA Capture-ON displaced
[17] = tested on: M8 (RNA, aptamer) GGGUUUGGGUAGUCGAUUCGACUGAAUGCCGCGUAGGCUUCGCUACUGGCUUCUACUACGUACCCAAACCC; experiment: ITC; details: 0.25 mM K+, 20 mM Na+, 5 mM Mg2+; 1x CSB (40 mM HEPES pH 7.4), 25 °C; 30 µM RNA, 500 µM LFX; one-site model
[18] = tested on: M10 (RNA, aptamer) GGGUUUGGGUAGUGCGAUUCGCACUGAAUGCCGCGUAGUUCGCUACUGGCUUCUACUACGUACCCAAACCC; experiment: ITC; details: 0.25 mM K+, 20 mM Na+, 5 mM Mg2+; 1x CSB (40 mM HEPES pH 7.4), 25 °C; 30 µM RNA, 500 µM LFX in syringe
[19] = tested on: LxE (RNA, aptamer) GGGCAACUCCAAGCUAGAUCUACCGGUCGUAGUGGACCUGUUUAGGUUUGCAUACGUUAGAUGUCUUCUACUGGCUUCUAAAUCGAACCGAAAAUGGCUAGCAAAGGAGAAGAACUUUUCACU; experiment: elution from immobilised Capture-ON; details: 0.25 mM K+, 20 mM Na+, 5 mM Mg2+; 1x CSB (40 mM HEPES pH 7.4); 1 mM LFX; DNA Capture-ON displaced
[20] = tested on: M9 (RNA, aptamer) GGGUUUGGGUAGUCGUUCGCGACUGAAUGCCGCGUAGGCUUCGCUACUGGCUUCUACUACGUACCCAAACCC; experiment: ITC; details: 0.25 mM K+, 20 mM Na+, 5 mM Mg2+; 1x CSB (40 mM HEPES pH 7.4), 25 °C; 30 µM RNA, 500 µM LFX; one-site model
[21] = tested on: M7 (RNA, aptamer) GGGUUUGGGUAUGAAUGCCGCGUAGGCUUCGCUACUGGCUUCUACUACGUACCCAAACCC; experiment: ITC; details: 0.25 mM K+, 20 mM Na+, 5 mM Mg2+; 1x CSB (40 mM HEPES pH 7.4), 25 °C; 30 µM RNA, 500 µM LFX in syringe
[22] = tested on: M11 (RNA, aptamer) GGGUUUGGGUAGUGCGAUUCGCACUGAAUGCUUCGGCUUCUACUACGUACCCAAACCC; experiment: ITC; details: 0.25 mM K+, 20 mM Na+, 5 mM Mg2+; 1x CSB (40 mM HEPES pH 7.4), 25 °C; 30 µM RNA, 500 µM LFX in syringe
[23] = tested on: LxA2 (RNA, aptamer) GGGCAACUCCAAGCUAGAUCUACCGGUUUUUUCUGGCGGCUUAAAAACCAGGAAAGGUGGAGACUUCUACUGGCUUCUAUCCAGCCGGUAAAAUGGCUAGCAAAGGAGAAGAACUUUUCACU; experiment: elution from immobilised Capture-ON; details: 0.25 mM K+, 20 mM Na+, 5 mM Mg2+; 1x CSB (40 mM HEPES pH 7.4); 1 mM LFX; DNA Capture-ON displaced
[24] = tested on: M2 (RNA, aptamer) GGGUUUGCGUAGUGCGAUUCGCACUGAAUGCCGCGUAGGCUUCGCUACUGGCUUCUACUACGUACGCAAACCC; experiment: ITC; details: 0.25 mM K+, 20 mM Na+, 5 mM Mg2+; 1x CSB (40 mM HEPES pH 7.4), 25 °C; 30 µM RNA, 500 µM LFX; one-site model
[25] = tested on: LxB2 (RNA, aptamer) GGGCAACUCCAAGCUAGAUCUACCGGUGUGUAACGGAAGCACAAAGGUGCCUCCUACAGCAGGUCUUCUACUGGCUUCUACUGAUACGCUAAAAUGGCUAGCAAAGGAGAAGAACUUUUCACU; experiment: elution from immobilised Capture-ON; details: 0.25 mM K+, 20 mM Na+, 5 mM Mg2+, 1x CSB (40 mM HEPES pH 7.4), DNA Capture-ON displaced

Kd [1]: 5 ± 6 µM | Kd [2]: 6 µM | fraction eluted ([3]; 1 mM LFX): 27.4% | binding [4]: no | binding [5]: no | binding [6]: no | binding [7]: yes | binding [8]: yes | fraction eluted ([9]; 1 mM LFX): 47.3% | binding [10]: no | Kd [11]: 6 µM | binding ([12]; signal at 100 µM and above): yes | binding [13]: no | binding [14]: no | binding [15]: no | binding ([16]; 1 mM LFX): yes | Kd [17]: 6 ± 3 µM | binding [18]: no | binding [19]: yes | Kd [20]: 3 ± 3 µM | binding [21]: no | binding [22]: no | binding [23]: yes | Kd [24]: 4 ± 1 µM | binding ([25]; 1 mM LFX): yes
SMILES: C[C@H]1COc2c(N3CCN(C)CC3)c(F)cc3c(=O)c(C(=O)O)cn1c23

binding ([3]; 1 mM CFX, LFX/CFX elution ratio 3.2): weak | binding ([9]; 1 mM CFX, LFX/CFX elution ratio 2.6): weak | binding ([12]; up to 5000 µM): weak | binding ([16]; 1 mM CFX, LFX/CFX elution ratio 2.2): weak | binding ([25]; 1 mM CFX, LFX/CFX elution ratio 2.1): weak
SMILES: O=C(O)c1cn(C2CC2)c2cc(N3CCNCC3)c(F)cc2c1=O
